Like-named read-outs stand apart in the source and are kept apart here.
Experiments:
[1] = parameters: species or system mice; details: mouse, in vivo; for Bioavailability / Plasma level of non-ester (Compound [II]) 2 hr / AUC: 120 min; for Plasma level of non-ester (Compound [II]) 0.25 hr / Plasma level of non-ester (Compound [II]) 0.5 hr / Plasma level of non-ester (Compound [II]) 1.0 hr / Plasma level of non-ester (Compound [II]) 2 hr / AUC: po, 100 mg/kg; for Plasma level of non-ester (Compound [II]) 0.25 hr: 15 min; for Plasma level of non-ester (Compound [II]) 0.5 hr: 30 min; for Plasma level of non-ester (Compound [II]) 1.0 hr: 60 min
Experimental: The compounds of Examples (compound Nos. 1 and 2) and, as a control compound, the pivaloyloxymethyl ester of compound [II] (hereinafter referred to briefly as compound A) are administered orally to mice, each compound to one animal, in the dose of 100 mg/kg in terms of the non-ester, i.e. compound [II]. […] As a control, compound [II] is subcutaneously administered to a mouse and the AUC value is calculated as above.

Proteus mirabilis = details: Antimicrobial Agent and Chemotherapy 14, 557-568 (1978); cited from earlier work
Staphylococcus aureus = details: Antimicrobial Agent and Chemotherapy 14, 557-568 (1978); cited from earlier work
Proteus vulgaris = details: Antimicrobial Agent and Chemotherapy 14, 557-568 (1978); cited from earlier work
Proteus morganii = details: Antimicrobial Agent and Chemotherapy 14, 557-568 (1978); cited from earlier work
Klebsiella pneumoniae = details: Antimicrobial Agent and Chemotherapy 14, 557-568 (1978); cited from earlier work
Escherichia coli = details: Antimicrobial Agent and Chemotherapy 14, 557-568 (1978); cited from earlier work

Structure (SMILES) | Bioavailability [1] [%] | Plasma level of non-ester (Compound [II]) 0.25 hr [1] [ng/mL] | Plasma level of non-ester (Compound [II]) 0.5 hr [1] [ng/mL] | Plasma level of non-ester (Compound [II]) 1.0 hr [1] [ng/mL] | Plasma level of non-ester (Compound [II]) 2 hr [1] [ng/mL] | AUC [1] [ng·h/mL] | antibacterial activity (Proteus mirabilis) | antibacterial activity (Staphylococcus aureus) | antibacterial activity (Proteus vulgaris) | antibacterial activity (Proteus morganii) | antibacterial activity (Klebsiella pneumoniae) | Bioavailability ([1]; sc) [%] | antibacterial activity (Escherichia coli)
CN(C)CCn1nnnc1SCC1=C(C(=O)OCOC(=O)C(C)(C)C)N2C(=O)[C@@H](NC(=O)Cc3csc(N)n3)[C@H]2SC1 [A, pivaloyloxymethyl ester of compound [II]] | 41.8 | 21000 | 16200 | 6100 | 600 |  |  |  |  |  |  |  | 
CC(C)CC(=O)OC(OC(=O)C1=C(CSc2nnnn2CCN(C)C)CS[C@@H]2[C@H](NC(=O)Cc3csc(N)n3)C(=O)N12)C(C)C.Cl.Cl (stereo partly drawn) [Compound No. 1, 1-(3-Methylbutyryloxy)-2-methylpropyl 7β-[2-(2-aminothiazol-4-yl)acetamido]-3-[[[1-(2-dimethylaminoethyl)-1H-tetrazol-5-yl]thio]methyl]ceph-3-em-4-carboxylate dihydrochloride] | 91.0 | 55400 | 37000 | 8460 | 2500 | 35300 |  |  |  |  |  |  | 
CCCC(OC(=O)CC(C)C)OC(=O)C1=C(CSc2nnnn2CCN(C)C)CS[C@@H]2[C@H](NC(=O)Cc3csc(N)n3)C(=O)N12.Cl.Cl (stereo partly drawn) [Compound No. 2, 1-(3-Methylbutyryloxy)butyl 7β-[2-(2-aminothiazol-4-yl)acetamido]-3-[[[1-(2-dimethylaminoethyl) -1H-tetrazol-5-yl]thio]methyl]ceph-3-em-4-carboxylate dihydrochloride] | 81.4 | 74300 | 21600 | 5360 | 1800 | 31600 |  |  |  |  |  |  | 
CN(C)CCn1nnnc1SCC1=C(C(=O)O)N2C(=O)[C@@H](NC(=O)Cc3csc(N)n3)[C@H]2SC1 [Compound [II], 7β-[2-(2-aminothiazol-4-yl)acetamido]-3-[[[1-(2-dimethylaminoethyl)-1H-tetrazol-5-yl]thio]methyl]ceph-3-em-4-carboxylic acid] |  |  |  |  |  |  | potent antibacterial activity | potent antibacterial activity | potent antibacterial activity | potent antibacterial activity | potent antibacterial activity | 100 | potent antibacterial activity

Source: US4725592A, “1-Acyloxyalkyl esters of cephalosporin” (Takeda Chemical Industries, Ltd., priority 1983, dated 1988)
